This is an account of results in patent US20090025102A1, “GLUTAMATE RECEPTOR […] AND PROTEINS FOR ENHANCING NITROGEN U[…] CROP PLANTS” (PIONEER HI-BRED INTERNATIONAL, INC., priority 2007, published 2009).

Test [1] concerns AtGLR-AP knockout lines. The test is described as follows: Germination bioassay with the iGLR antagonist DNQX. It counts as in vivo, Arabidopsis. How it is done:
Therefore we used a similar approach to test the sucrose sensitivity of the homozygous AtGLR-APs lines described above by conducting vertical plate assays on MS plates minus N and supplemented with increasing concentrations of sucrose. […] We also developed a short term N-sensitivity bioassay.
Bioassay, iGLR Antagonist DNQX
However, germination of the GRASP2.1-1 line was not affected when DNQX was added to the media.

Test [2] concerns PSD1.1 and PSD2.1 KO plants. The test is described as follows: Growth assay of PSD1.1 and PSD2.1 KO plants on media containing DNQX. It counts as in vivo, Arabidopsis. Particulars: 200 or 400 μM DNQX and 3% sucrose, 7 days. The protocol: Growth assays for the PSD1.1 and PSD2.1 KO plants were undertaken. Plants were sown on different media, refrigerated overnight, then incubated in the standard growth conditions for 7 days. The short vernalization was used as that is what has been typically used in this lab for DNQX experiments. […] When grown in the presence of 3% sucrose, both on MS and media lacking nitrogen PSD1.1 and PSD2.1 looks similar to Col-0.

The test system of test [3] is AtGLR-AP knockout lines. Particulars: lines deficient in AtGLR1.1, uM 200, previously demonstrated; cited from earlier work.

As to `O=c1[nH]c2cc([N+](=O)[O-])c([N+](=O)[O-])cc2[nH]c1=O` [DNQX, 6,7-dinitroquinoxaline-2,3-[1H,4H]-dione], the “germination when DNQX was added to the media” value with AtGLR-AP knockout lines [1] (GRASP2.1-1 line) is recorded as “not affected”. The “germination on media supplemented DNQX” value in the test with AtGLR-AP knockout lines [1] (GRASP2.3-6 line) is “noticeable reduction in germination”. Besides, the decrease in germination in the test on AtGLR-AP knockout lines [1] (PSD1.1 knockout, 200 uM DNQX) is given as 35-40%. Also, the “difference between Col-0 and the two KO lines” value in test [2] is “No obvious difference”. The “sensitivity of Arabidopsis lines deficient in AtGLR1.1 to the iGLR antagonist” value with AtGLR-AP knockout lines [3] is reported as “sensitive”.
